Data: US20070275961A1, “Triazolo ' 1, 5-A ! Pyrimidines and Their Use in Medicine” (VERNALIS (CAMBRIDGE) LIMITED., priority 2003, published 2007)
Where two headings read alike, the source gives them in different places.

Key:
Assay type in all cases: biochemical
[1] = target: CDK2 enzyme, complexed with cyclin A (Homo sapiens, UniProt P24941); test: CDK2 cyclin dependent kinase assay, phosphorylation of synthetic peptide […] (33P-ATP filtration); details: 0.1 mM ATP
PDK1 enzyme = target: T1, PDK1 enzyme (Homo sapiens, UniProt O15530); test: PDK1 3'-phosphoinositide-dependent kinase assay, phosphorylation of synthetic peptide (33P-ATP filtration); details: 0.01 mM ATP, read-out: PDK1 IC50
T1 sequence (O15530 1-556): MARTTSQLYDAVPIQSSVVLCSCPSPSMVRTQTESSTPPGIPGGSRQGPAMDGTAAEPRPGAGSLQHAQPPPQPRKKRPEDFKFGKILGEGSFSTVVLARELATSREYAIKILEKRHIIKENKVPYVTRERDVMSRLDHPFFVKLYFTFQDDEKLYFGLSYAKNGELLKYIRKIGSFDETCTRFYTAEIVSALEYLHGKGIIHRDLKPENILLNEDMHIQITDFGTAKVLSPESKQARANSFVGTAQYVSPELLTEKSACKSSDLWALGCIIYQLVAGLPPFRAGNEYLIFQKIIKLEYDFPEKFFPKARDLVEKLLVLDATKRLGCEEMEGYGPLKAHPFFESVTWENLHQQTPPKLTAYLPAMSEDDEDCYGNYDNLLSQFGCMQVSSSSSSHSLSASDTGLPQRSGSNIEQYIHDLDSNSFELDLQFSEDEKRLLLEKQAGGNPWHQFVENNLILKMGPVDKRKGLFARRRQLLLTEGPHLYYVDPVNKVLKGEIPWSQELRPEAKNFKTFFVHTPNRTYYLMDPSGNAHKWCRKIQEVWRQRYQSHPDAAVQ
How it was run: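 Radiometric peptide phosphorylation by PDK1 with inhibitor, 60 min at 30 °C, using 0.01 mM ATP plus 33P-γ-ATP, 0.075 mM peptide, 7.5 mM Mg acetate in Tris-HCl pH 7.5. Phosphoric acid stopped reaction; phosphorylated peptide captured on filter plates and counted by scintillation.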

Chk1 = target: T2, Chk1 (Homo sapiens, UniProt O14757); test: Chk1 kinase assay, phosphorylation of Chktide (33P-ATP filtration); details: 0.01 mM ATP, read-out: Chk1 IC50
T2 sequence (O14757 1-476): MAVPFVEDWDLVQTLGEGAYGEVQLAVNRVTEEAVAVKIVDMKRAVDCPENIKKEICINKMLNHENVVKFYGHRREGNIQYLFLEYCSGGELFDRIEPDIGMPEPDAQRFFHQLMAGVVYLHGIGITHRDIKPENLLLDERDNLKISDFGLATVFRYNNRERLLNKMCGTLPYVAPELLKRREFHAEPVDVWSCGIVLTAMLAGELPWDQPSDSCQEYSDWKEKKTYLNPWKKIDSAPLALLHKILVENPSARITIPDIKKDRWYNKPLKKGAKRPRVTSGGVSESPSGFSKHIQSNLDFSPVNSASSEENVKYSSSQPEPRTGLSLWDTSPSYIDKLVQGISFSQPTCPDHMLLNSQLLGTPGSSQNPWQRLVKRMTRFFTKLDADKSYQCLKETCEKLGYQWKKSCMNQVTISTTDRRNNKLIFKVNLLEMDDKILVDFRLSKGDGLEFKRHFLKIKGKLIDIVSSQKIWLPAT
How it was run: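 GST-Chk1 (11 nM) with inhibitor, 30 μM Chktide peptide, 0.01 mM ATP plus 33P-γ-ATP in 50 mM Hepes pH 7.5 with 0.1 mg/ml BSA, 40 min at 30° C. Stopped with phosphoric acid; phosphorylated peptide captured on filter plates and scintillation-counted.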

| SMILES | IC50 ([1]; Table 3) [µM] | IC50 (PDK1 enzyme; Table 3) [µM] | IC50 (Chk1; Table 3) [µM] | IC50 ([1]; Table 4) [µM] | IC50 (PDK1 enzyme; Table 4) [µM] | IC50 (Chk1; Table 4) [µM] |
| --- | --- | --- | --- | --- | --- | --- |
| Cc1cccc(-c2cc(Nc3ccc(C(N)=O)cc3)nc3ncnn23)c1 [Example 104] | > 200 | 4.08 | 14.9 |  |  |  |
| CCN(CC)CCNC(=O)c1ccc(Nc2cc(-c3cccc(C)c3)n3ncnc3n2)cc1 [Example 105] | > 200 | 6.1 | 5.45 |  |  |  |
| Cc1cccc(-c2cc(Nc3ccc(N4CCOCC4)cc3)nc3ncnn23)c1 [Example 106] | > 200 | 23.2 | 63.3 |  |  |  |
| Cc1cccc(-c2cc(Nc3ccc(CCO)cc3)nc3ncnn23)c1 [Example 107] | > 200 | 14.7 | 42.2 |  |  |  |
| Cc1cccc(-c2cc(Nc3ccc(N(C)C)cc3)nc3ncnn23)c1 [Example 108] | > 200 | 66.8 | 36.8 |  |  |  |
| Cc1cccc(-c2cc(Nc3ccc(N4CCN(C)CC4)cc3)nc3ncnn23)c1 [Example 109] | > 200 | 36 | 6.7 |  |  |  |
| OCCc1ccc(Nc2cc(-c3cccc(F)c3)n3ncnc3n2)cc1 [Example 111] | > 200 | 52.2 | 9.57 |  |  |  |
| N#Cc1ccc(Nc2cc(-c3cccc(F)c3)n3ncnc3n2)cc1 [Example 112] | 119 | 51.6 | > 200 |  |  |  |
| Fc1cccc(-c2cc(Nc3ccc(N4CCOCC4)cc3)nc3ncnn23)c1 [Example 113] | > 200 | 46.5 | 5.62 |  |  |  |
| Cc1cc(Nc2ccc(C(N)=O)cc2)nc2ncnn12 [Example 114] | > 200 | > 200 | 6.42 |  |  |  |
| CC(C)c1cc(Nc2ccc(C(N)=O)cc2)nc2ncnn12 [Example 115] | 148 | > 200 | 83.7 |  |  |  |
| NC(=O)c1ccc(Nc2cc(-c3ccccc3)n3ncnc3n2)cc1 [Example 116] | 97.5 | 5.11 | 9.82 |  |  |  |
| NC(=O)c1ccc(Nc2cc(-c3cccc(F)c3)n3ncnc3n2)cc1 [Example 117] | > 200 | 7.3 | 3.05 |  |  |  |
| NS(=O)(=O)c1ccc(Nc2cc(-c3cccc(F)c3)n3ncnc3n2)cc1 [Example 118] | 116 | 6.28 | 1.54 |  |  |  |
| CS(=O)(=O)c1ccc(Nc2cc(-c3cccc(F)c3)n3ncnc3n2)cc1 [Example 119] | > 200 | 115 | 2.58 |  |  |  |
| CCN(CC)CCNC(=O)c1ccc(Nc2cc(C)n3ncnc3n2)cc1 [Example 120] | > 200 | > 200 | 0.82 |  |  |  |
| CCN(CC)CCNC(=O)c1ccc(Nc2cc(-c3ccccc3)n3ncnc3n2)cc1 [Example 121] | > 200 | 15.4 | 2.25 |  |  |  |
| CCN(CC)CCNC(=O)c1ccc(Nc2cc(C(C)C)n3ncnc3n2)cc1 [Example 122] | > 200 | > 200 | 22.9 |  |  |  |
| NC(=O)c1ccc(Nc2cc(Cc3ccccc3)n3ncnc3n2)cc1 [Example 123] | > 200 | > 200 | 31.4 |  |  |  |
| CCN(CC)CCNC(=O)c1ccc(Nc2cc(Cc3ccccc3)n3ncnc3n2)cc1 [Example 124] | > 200 | > 200 | 15.8 |  |  |  |
| CCN(CC)CCNC(=O)c1ccc(Nc2cc(Cc3ccccc3OC)n3ncnc3n2)cc1 [Example 125] | > 200 | > 200 | 37.4 |  |  |  |
| COc1ccc(OC)c(Cc2cc(Nc3ccc(C(N)=O)cc3)nc3ncnn23)c1 [Example 127] | > 200 | > 200 | 106 |  |  |  |

| SMILES | IC50 ([1]; Table 3) [µM] | IC50 (PDK1 enzyme; Table 3) [µM] | IC50 (Chk1; Table 3) [µM] | IC50 ([1]; Table 4) [µM] | IC50 (PDK1 enzyme; Table 4) [µM] | IC50 (Chk1; Table 4) [µM] |
| --- | --- | --- | --- | --- | --- | --- |
| CCN(CC)CCNC(=O)c1ccc(Nc2cc(Cc3cc(OC)ccc3OC)n3ncnc3n2)cc1 [Example 128] | > 200 | > 200 | 65.8 |  |  |  |
| CN(C)S(=O)(=O)c1ccc(Nc2cc(-c3cccc(F)c3)n3ncnc3n2)cc1 [Example 129] | > 200 | 30.6 | 12.2 |  |  |  |
| O=S(=O)(c1ccc(Nc2cc(-c3cccc(F)c3)n3ncnc3n2)cc1)N1CCOCC1 [Example 130] | > 200 | 34.2 | 26.9 |  |  |  |
| CC(=O)Nc1cccc(Nc2cc(-c3cccc(F)c3)n3ncnc3n2)c1 [Example 131] | > 200 | 69.4 | 26.3 |  |  |  |
| O=C(O)c1ccc(Nc2cc(-c3cccc(F)c3)n3ncnc3n2)cc1 [Example 132] | > 200 | 36.2 | > 200 |  |  |  |
| CCOC(=O)Cc1ccc(Nc2cc(-c3cccc(F)c3)n3ncnc3n2)cc1 [Example 133] | > 200 | 2.25 | 8.84 |  |  |  |
| NC(=O)c1cccc(Nc2cc(-c3cccc(F)c3)n3ncnc3n2)c1 [Example 134] | > 200 | 8.09 | 23.2 |  |  |  |
| COc1ccc(C)cc1-c1cc(Nc2ccc(C(N)=O)cc2)nc2ncnn12 [Example 135] | > 200 | 10.7 | 107 |  |  |  |
| NC(=O)c1ccc(Nc2cc(-c3ccc4ccccc4c3)n3ncnc3n2)cc1 [Example 136] | > 200 | 92.9 | 13.7 |  |  |  |
| NC(=O)c1ccc(Nc2cc(-c3ccc4c(c3)OCO4)n3ncnc3n2)cc1 [Example 137] | > 200 | 29.1 | 14.2 |  |  |  |
| Cc1ccc(-c2cc(Nc3ccc(C(N)=O)cc3)nc3ncnn23)cc1 [Example 138] | > 200 | 4.21 | 26.1 |  |  |  |
| NC(=O)Cc1ccc(Nc2cc(-c3cccc(F)c3)n3ncnc3n2)cc1 [Example 139] | > 200 | 1.12 | 3.76 |  |  |  |
| CCN(CC)CCNC(=O)c1ccc(Nc2cc(-c3ccc4c(c3)OCO4)n3ncnc3n2)cc1 [Example 140] | > 200 | 1.8 | 1 |  |  |  |
| NC(=O)c1ccc(Nc2cc(-c3cccc(OCc4cccnc4)c3)n3ncnc3n2)cc1 [Example 145] |  |  |  | 23.1 | 1.73 | 9.86 |
| CCN(CC)CCOc1cccc(-c2cc(Nc3ccc(C(N)=O)cc3)nc3ncnn23)c1 [Example 146] |  |  |  | 5.51 | 7.6 | 20.8 |
| NCCCOc1cccc(-c2cc(Nc3ccc(C(N)=O)cc3)nc3ncnn23)c1 [Example 147] |  |  |  | 71.7 | 6.13 | 5.21 |
| NC(=O)c1ccc(Nc2cc(-c3cccc(OCC4CCCNC4)c3)n3ncnc3n2)cc1 (stereo not drawn) [Example 148] |  |  |  | 5.38 | 10.4 | 17 |
| NC(=O)c1ccc(Nc2cc(-c3cccc(OCc4ccccc4)c3)n3ncnc3n2)cc1 [Example 149] |  |  |  | 8.41 | 2.26 | 4.12 |
| NCCOc1cccc(-c2cc(Nc3ccc(C(N)=O)cc3)nc3ncnn23)c1 [Example 151] |  |  |  | 47.5 | 0.25 | 3 |
| NC(=O)COc1cccc(-c2cc(Nc3ccc(C(N)=O)cc3)nc3ncnn23)c1 [Example 157] |  |  |  | 6.56 | 4.82 | 6.05 |
| CCN(CC)CCNC(=O)c1ccc(Nc2cc(-c3cccc(OCCN)c3)n3ncnc3n2)cc1 [Example 165] |  |  |  | 7.89 | 0.81 | 1.4 |
| CCc1cc(OCCN)cc(-c2cc(Nc3ccc(C(N)=O)cc3)nc3ncnn23)c1 [Example 166] |  |  |  | 2.58 | 1.2 | 2.7 |
